Literature values in patent EP3646858A1, “ENCAPSULATED FORMULATIONS” (Pharmalink, SL, priority 2017, dated 2019).

Conditions: association with piperine; inhibition of hepatic and intestinal glucuronidation

COc1cc(/C=C/C(=O)CC(=O)/C=C/c2ccc(O)c(OC)c2)ccc1O [curcumin]
increase of the bioavailability of curcumin: 20 fold
